The values that follow come from patent US20250161332A1, “NON-PSYCHOACTIVE MULTI-CANNABINOID AND POLYSACCHARIDE AND POLYSACCHAROPEPTIDE-BASED THERAPEUTIC COMPOSITIONS AND METHODS OF THEIR ADMINISTRATIO” (Pebble Global Holdings, priority 2021, published 2025).

Data set [1] relates to animal models of epilepsy. The conditions noted are these: in vivo; cited from earlier work.
For data set [2] the following is noted: cited from earlier work; for circulating metabolite as percent of the parent based on plasma AUC of cannabidiol: in vivo.
The test system of data set [3] is ovarian cancer cell lines. Nature of the data set: Cell viability assay (tetrazolium to formazan), 10 ovarian cancer cell lines. The class given is cell-based. The note with it: 72 h. From the text:
Synergistic relationships for combinations of terpenoids and cannabinoids have been reported Russo, E. B. and J. Marcu, Chapter Three—Cannabis Pharmacology: The Usual Suspects and a Few Promising Leads, in Advances in Pharmacology, D. Kendall and S. P. H. Alexander, Editors. 2017, Academic Press. p. 67-134, the entire disclosure of which is incorporated herein by reference This observed synergy was strongly dependent on the ratio and origin of terpenoids, as shown in triple negative breast cancer models. In addition, many cannabinoids and terpenoids are immune suppressors as reported for alpha-bisabolol, which activates TGF to promote the differentiation of macrophages into the M2 phenotype (tumor promoting) and regulatory T cells. Ovarian cancer cell lines tested included A2780ip2, A2780CP20, HeyA8, HeyA8-MDR, SKOV3 and OVCAR3 and were maintained in RPMI 1640 supplemented with 10-15% fetal bovine serum and 0.1% gentamicin sulfate (available from Gemini Bioproducts, Calabasas, CA, USA). OVCAR5 cells were maintained in Dulbecco's modified Eagle's medium with 10% fetal bovine serum and 0.1% gentamicin sulfate. 1D8 murine ovarian cancer cells were maintained in Dulbecco modified
Eagle medium containing 10% fetal bovine serum (FBS), lx insulin-transferrin-selenium (available from Thermo Fisher Scientific, Waltham, MA), and 0.5% gentamicin. All above cells were cultured at 37° C. using a 5% C02 incubator. All in vitro experiments were performed with 70-80% confluent cultures and a passage number […].
Example 7. Cell viability assays. Cell viability assays were performed by testing ovarian cancer cells' metabolic ability to reduce the tetrazolium salt 3-(4,5-dimethylthiazol-2-yl)-5-(3-carboxymethoxyphenyl)-2-(4-sulfophenyl)-2H-tetrazolium (inner salt) to a formazan. […] Activities for each reagent were determined using Hill plot analyses (Graphpad Prism 8 software) to assess the half maximal effect—ICso. Results. […]

For the next data set, the target named is CB2 (Homo sapiens, UniProt P34972). The note with it: cited from earlier work.
Chain of CB2 (P34972 whole entry, species assumed): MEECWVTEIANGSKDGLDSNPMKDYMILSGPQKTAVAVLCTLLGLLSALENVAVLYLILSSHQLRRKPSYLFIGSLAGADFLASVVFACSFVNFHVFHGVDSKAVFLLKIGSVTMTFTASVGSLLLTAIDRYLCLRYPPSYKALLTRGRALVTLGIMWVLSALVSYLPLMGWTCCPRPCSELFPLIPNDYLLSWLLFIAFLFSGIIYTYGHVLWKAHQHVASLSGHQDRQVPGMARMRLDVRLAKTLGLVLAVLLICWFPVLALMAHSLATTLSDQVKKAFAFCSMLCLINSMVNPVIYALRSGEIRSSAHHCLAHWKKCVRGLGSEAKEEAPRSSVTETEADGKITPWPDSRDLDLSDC
A further data set concerns the target GPR55 (Homo sapiens, UniProt Q9Y2T6). The note with it: cited from earlier work.
Another data set has as its target T1, 5 HT1A receptor (Homo sapiens, UniProt P08908).
T1 sequence (P08908 1-422): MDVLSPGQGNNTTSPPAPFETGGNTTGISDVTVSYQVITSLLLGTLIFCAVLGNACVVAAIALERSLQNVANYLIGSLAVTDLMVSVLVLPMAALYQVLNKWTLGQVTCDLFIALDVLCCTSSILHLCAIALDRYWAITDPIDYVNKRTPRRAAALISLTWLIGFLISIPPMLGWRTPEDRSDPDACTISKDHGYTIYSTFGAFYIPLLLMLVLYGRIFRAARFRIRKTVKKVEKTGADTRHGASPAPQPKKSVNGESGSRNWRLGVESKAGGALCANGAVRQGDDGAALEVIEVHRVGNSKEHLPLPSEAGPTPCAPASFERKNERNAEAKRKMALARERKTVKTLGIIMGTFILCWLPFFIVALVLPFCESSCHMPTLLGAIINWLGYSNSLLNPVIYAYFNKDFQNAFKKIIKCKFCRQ
The note with it: cited from earlier work.

The subject of the next data set is OVCAR5 Luc. The experiment in a line: In vivo dose finding and efficacy study, orthotopic xenograft model for ovarian cancer. The arrangement: species or system nude mice. How it is done: Example 10. In vivo dose finding and efficacy study. The purpose of this study was to determine the safety and efficacy of single agent CBD and annelix in an orthotopic xenograft model for ovarian cancer. This mouse model resembles the disease of ovarian cancer in humans with development of tumor nodules in the abdominal cavity and development of ascites. Method. Luciferase transfected human ovarian tumor cells, OVCAR5 Luc (1.0 million) were injected into the peritoneal cavity of nude mice, intra peritoneally (i.p.). On day 8 after tumor cell injection IVIS® optical imaging was performed to confirm tumor establishment. […] The study was an approved protocol of the MD Anderson Cancer Center (MDACC) Institutional Animal Care and Use Committee (IACUC). […] Mice were sacrificed on day 32 (post inoculation of cells) and tumors were harvested. Body weights, tumor weight, number of tumor nodules and ascites volumes were recorded. Results: The body weights, tumor weights, tumor nodules and ascites volumes for each of the treatment groups are shown in FIG. 4. […] Control mice received corn oil injections. Body weights were not affected by either the dose of annelix (aq.), nor by the dose of CBD in this study.

A further data set has as its system A2780 and OVCAR5. Nature of the data set: Reverse Phase Protein Array (RPPA) and Ingenuity Pathway Analysis. The class given is cell-based. The note with it: 5 μM (CBD content). From the text: Example 11. Protein Expression Level Effects. […] Results.
The test system of the next data set is normal endothelial cells. The note with it: cited from earlier work.
In another data set the test system is ALL. The note with it: cited from earlier work.
A further data set relates to B16-F10 melanoma. The conditions noted are these: cited from earlier work.
For data set [4] the following is noted: treatment regimens, cited from earlier work; for nausea and gastrointestinal (GI) AEs, occurrence: single agents.
In data set [5] the test system is leukemia (P388), liver cancer (HepG2), skin melanoma (B16-F10), and myelogenous leukemia (K562). The note with it: range over the four cell lines; cited from earlier work.

Chain of GPR55 (Q9Y2T6 whole entry, species assumed): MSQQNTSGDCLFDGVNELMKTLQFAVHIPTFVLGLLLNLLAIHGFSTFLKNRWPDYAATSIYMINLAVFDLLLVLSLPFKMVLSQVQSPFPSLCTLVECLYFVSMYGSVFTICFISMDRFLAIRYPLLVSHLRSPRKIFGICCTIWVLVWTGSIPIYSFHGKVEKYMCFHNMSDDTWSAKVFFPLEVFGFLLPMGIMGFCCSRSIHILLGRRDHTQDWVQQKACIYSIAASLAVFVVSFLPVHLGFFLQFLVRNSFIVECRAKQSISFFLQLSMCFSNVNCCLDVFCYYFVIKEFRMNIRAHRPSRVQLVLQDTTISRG

Regarding `C=C(C)[C@@H]1CCC(CO)=C[C@H]1c1c(O)cc(CCCCC)cc1O` [7-OH-CBD, 7-hydroxy-cannabidiol], the activity result in [1] is “equipotent and active”. Also, the “circulating metabolite as percent of the parent based on plasma AUC of cannabidiol” value in data set [2] is “approximately 38%”.

For `C=C(C)[C@@H]1C[C@H](O)C(C)=C[C@H]1c1c(O)cc(CCCCC)cc1O` [6-OH-CBD, 6-hydroxy-cannabidiol], in [2], the “circulating metabolite as percent of the parent based on plasma AUC of cannabidiol” value is given as less than 10%.

Consider `CCCCCc1cc(O)c2c(c1)OC(C)(CCC=C(C)C)C=C2` (stereo not drawn) [CBC, cannabichromene], for which the IC50 in data set [3] lay in the range of 25.9 to 49.9 µM.

As to `C=C(C)[C@@H]1CCC(C)=C[C@H]1c1c(O)cc(CCCCC)cc1O` [CBD, cannabidiol], the “affinity for CB2 receptor” value on CB2 was “little affinity”. At GPR55, the “mode of action at GPR55” value is given as “antagonist”. Further, the activity result in data set [1] was “equipotent and active”. In addition, the “mode of action at 5 HT1A receptor” value at 5 HT1A receptor is “agonist”. Moreover, the IC50 in data set [3] fell in the range of 7.8 to 14.7 µM. The “tumor burden compared to control group” value with OVCAR5 Luc (50 mg/kg i.p.) was “reduction in tumor burden”. Also, the ascites volume entry in the data set on OVCAR5 Luc (50 mg/kg i.p., statistical significance not reached) is recorded as “controlled”. The body weights entry with OVCAR5 Luc (1, 10 and 50 mg/kg based on CBD content, i.p., 3 times per week until day 32) is recorded as “not affected”. For the same compound, the “tolerability / adverse effects” value in the data set on OVCAR5 Luc (1, 10 and 50 mg/kg, i.p., 3 times per week until day 32) was “well tolerated and did not cause any adverse effects”. In addition, the enzymes primarily metabolizing result in [2] (liver and gut) was “CYP2C19, CYP3A4, and UGT1A7, UGT1A9, and UGT2B7”. Also, in the data set with A2780 and OVCAR5 (8 and 24 hours), the “most affected pathways versus DMSO” value was “HER-2 signaling in breast cancer, PI3/AKT signaling, molecular mechanisms of cancer, systemic lupus erythematosus in B cell signaling pathway, and autophagy”; the most upstream regulators result was “p53, AKT, E2F1, beta-estradiol and ERBB2”. Further, the “cell cycle checkpoint and DNA damage repair pathway proteins (Weel, CDC25, Rad51, chkl, ATR, ATM and p53)” value with A2780 and OVCAR5 (compared to DMSO control) was “very few proteins, including ATR and CDC25, were downregulated”.

As for `CC(C)=CCC[C@](C)(O)[C@@H]1CC=C(C)CC1` [alpha-bisabolol, (2S)-6-Methyl-2-[(1S)-4-methylcyclohex-3-en-1-yl]hept-5-en-2-ol], the IC50 in the data set on normal endothelial cells was 5 µM; in the data set with ALL, 73 µM.

On to `C=C1C2CCC(C2)C1(C)C` (stereo not drawn) [camphene, 2,2-Dimethyl-3-methyllidenebicyclo[2.2.1]heptane], for which the IC50 in the data set with B16-F10 melanoma was 529 µM.

For the compound `N.N.[Cl][Pt][Cl]` [cisplatinum], the “Neuropathy and neurological symptoms, occurrence” value in data set [4] is 94%.

In the case of `Nc1ccn([C@@H]2O[C@H](CO)[C@@H](O)C2(F)F)c(=O)n1` [gemcitabine], the “nausea and gastrointestinal (GI) AEs, occurrence” value in data set [4] is recorded as 69%.

Regarding `CCCCCc1cc(O)c(C/C=C(\C)CCC=C(C)C)c(O)c1` [CBG, cannabigerol], the half-inhibitory concentration (IC50) in [3] was in the range of 17 to 35 µM.

On to `C=C(C)[C@@H]1CCC(C(=O)O)=C[C@H]1c1c(O)cc(CCCCC)cc1O` [7-COOH-CBD, 7-carboxy-cannabidiol], for which the outcome in data set [1] was inactive. Also, the “circulating metabolite level relative to parent” value in data set [2] (higher than the parent cannabidiol) is given as “approximately 40 fold”.

With `CC1=CC=C(C(C)C)CC1` [alpha-terpinene, 1-Isopropyl-4-methyl-1,3-cyclohexadiene], the half-maximal inhibitory concentration (IC50) in data set [5] is 60 to 180 µM.

Take `CC[C@@]1(O)C(=O)OCc2c1cc1n(c2=O)Cc2cc3c(CN(C)C)c(O)ccc3nc2-1` [topotecan]: the “nausea and gastrointestinal (GI) AEs, occurrence” value in data set [4] is 63%.
